Columns and labels:
[1] = tested on: ST cells; experiment: Cell Counting Kit 8 cytotoxicity assay in ST cells; format: cell-based, swine; settings: PM at concentrations less than 30 mM, 24 h
Description: (§1) Fig 1 PM inhibits TGEV and PRCV infection in ST cells. (A) A cytotoxicity assay of PM in ST cells. ST cells cultured in a 96-well plate were incubated with different concentrations of PM for 24 h, which was tested by Cell Counting Kit 8. (B) Time course for PM inhibiting TGEV or PRCV or PEDV infection assay. (C–F) The ST cells, pretreated with PM at the indicated concentrations for 1 h were infected with TGEV Miller (0.1 MOI) or PRCV (0.1 MOI) for 1 h and were again treated with PM at 37°C for 17 h. The cell samples were collected and examined by real-time quantitative PCR (RT-qPCR), TCID50, western blot (C and D), and immunofluorescence assay (IFA) (E and F), scale bar: 50 µm. (G) Vero-E6 cells were treated with indicated PM and infected with PEDV LJX 01/2014 according to the time course of Fig. 1B, which was detected by TCID50 and western blot. Results are presented as mean ± SD of data from three independent experiments. ns, no significant; **, P ≤ 0.01; ***, P ≤ 0.001.
ST cells or intestinal organoids cultured in a 96-well plate were incubated with different concentrations of PM (0, 0.1, 0.25, 0.5, 1, 2.5, 5, 10, 20, and 30 mM) for 24 h. […] The absorbance of each well was then measured at 450 nm using a microplate reader to determine cell viability.

[2] = tested on: PEDV LJX 01/2014; experiment: PEDV infection of Vero-E6 cells (TCID50, western blot); format: cell-based, porcine epidemic diarrhea virus; settings: TCID50 and western blot
Description: as §1

[3] = tested on: PRCV; experiment: PRCV infection of ST cells (RT-qPCR, TCID50, western blot, IFA); format: cell-based, porcine respiratory coronavirus; settings: PRCV 0.1 MOI; for PRCV N level, western blot, relative to WT without PM (=1): PM 10 mM, 16 h
Description: as §1
Fig 3 PM inhibits TGEV and PRCV infection by potassium ion and molybdate synergy. (A and B) The ST cells, pretreated with potassium chloride (KCl) or sodium molybdate (Na2MoO4) at the indicated concentrations for 1 h were infected with TGEV Miller (0.1 MOI) for 1 h and were again treated with KCl or Na2MoO4 at 37°C for 17 h. The cell samples were measured by RT-qPCR. (C and D) ST cells were treated with PM (K2MoO4, 10 mM), KCl (20 mM), Na2MoO4 (10 mM), sodium chloride (NaCl, 10 mM), K2MoO4 (10 mM), and NaCl (20 mM) as well as Na2MoO4 (10 mM) and KCl (20 mM) for 1 h and then infected with TGEV Miller (0.1 MOI) or PRCV (0.1 MOI) for 17 h, which was determined by RT-qPCR and TCID50. Results are presented as mean ± SD of data from three independent experiments. ***, P ≤ 0.001; ns, no significance.
Total RNA was extracted using RNAiso reagent (TaKaRa, Japan, 9109) and reverse transcribed into cDNA using HiScript Q RT SuperMix for qPCR (Vazyme, China, R223-01), both of which followed the manufacturer’s recommendations. The TGEV and PRCV virus copy numbers were detected by the TaqMan probe-based RT-qPCR method developed previously in our laboratory ([59]). Relative qPCR was also performed using ChamQ SYBR qPCR master mix (Vazyme, China, Q311-02), and the results were calculated via the 2^-ΔΔCT method.
Fig. S8. PM inhibits PRCV infection by degrading APN via PIK3C3-mediated autophagy. (A-C) WT ST cells and PIK3C3 KO ST cells were treated with PM (10 mM) and infected with PRCV (0.1 MOI) for 16 h. Then the APN, PIK3C3, ATG14, BECN1, P62, PRCV N and LC3 were detected by western blot (A), and viral titers and PRCV N mRNA level were determined by TCID50 (B) and RT-qPCR (C) . (D-F) WT ST cells and PIK3C3 KO ST cells transfected with pCMV-Myc and pCMV-Myc-PIK3C3 respectively for 24 h were treated with PM (10 mM) and infected with PRCV (0.1 MOI) for 16 h. The APN, PIK3C3, P62, PRCV N and LC3 were determined by western blot (D). TCID50 (E) and RT-qPCR (F) were performed to detect viral titers and PRCV N m RNA level. All western blot results were calculated by Image J. Results are presented as mean ± SD of data from three independent experiments (also on this page, place not known: 6 8 10 12 Viral load(log copies/ul) *** 2 4 6 8 log10 TCID50/ml *** 6 8 10 12 + Viral load(log copies/ul) PIK3C3-Myc + - + + + *** *** 2 4 6 8 log10 TCID50/ml *** + + + + PIK3C3-Myc - - - + - + + + *** WT KO PM (C). WT KO PM PRCV PM - + + PRCV + + + WT PIK3C3 KO PIK3C3 PRCV PIK3C3-Myc - - - + PM - + + + PRCV + + + + WT PIK3C3 KO 0 0) […]

[4] = tested on: APN; experiment: APN expression in HEK-293T cells (western blot); format: cell-based, human; settings: for APN level, western blot quantified by Image J, relative to no PM (=1): PM 10 mM
Description: Fig. S6. PM degrades human and mouse-derived APN expression. (A and B) HEK-293T cells (A) and […] (B) were treated with PM (10 mM) for 8 h or 16 h respectively, APN expression was measured by western blot. All western blot results were calculated by Image J. All experiments were […]
PM(10mM) - + - + PM(10mM) - + - + […]

With `[K+].[K+].[O]=[Mo](=[O])([O-])[O-]` [PM, potassium molybdate] the “cytotoxicity (Cell Counting Kit 8)” value [1] was “did not exhibit significant cytotoxicity”, the PEDV infection [2] was “unable to repress PEDV infection” and the “PRCV N level, western blot, relative to WT without PM (=1)” value ([3]; Fig. S8A, PIK3C3 KO ST cells) was 0.81. The “PRCV N level, western blot, relative to WT without PM (=1)” value ([3]; Fig. S8A, WT ST cells) was 0, the “PRCV N level, western blot, relative to WT without PM (=1)” value ([3]; Fig. S8D, PIK3C3 KO ST cells with PIK3C3-Myc) was 0 and the “PRCV N level, western blot, relative to WT without PM (=1)” value ([3]; Fig. S8D, PIK3C3 KO ST cells without PIK3C3-Myc) was 0.78. The “PRCV N level, western blot, relative to WT without PM (=1)” value ([3]; Fig. S8D, WT ST cells with pCMV-Myc) was 0, the PRCV infection ([3]; ST cells, PM 1 h pretreatment and 17 h after infection, RT-qPCR, TCID50, western blot, IFA) was “effectively restricted” and the “APN level, western blot quantified by Image J, relative to no PM (=1)” value ([4]; 8 h) was 0.42. The “APN level, western blot quantified by Image J, relative to no PM (=1)” value ([4]; 16 h) was 0.23 and the “human APN expression” value ([4]; PM for 8 and 16 h) was “also decreased human and mouse-derived APN expression”.

Reference: article PMC11784013, “Potassium molybdate blocks APN-dependent coronavirus entry by degrading receptor via PIK3C3-mediated autophagy” (Journal of Virology, 2024)
